Source: patent US20090137572A1, “2-substituted-4-heteroaryl-pyrimidines useful for the treatment of proliferative disorders” (priority 2004, published 2009)

Columns and labels:
[1] = target: CDK7/cyclin H (Homo sapiens, UniProt P50613); test: CDK 7 assay (CTD peptide substrate); format: biochemical; conditions: read-out: Kinase Inhibition pIC50 CDK7-cyclin H (converted)
How it was run: (§1)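 Inhibition measured against recombinant human kinase/cyclin complex phosphorylating biotin-(Tyr-Ser-Pro-Thr-Ser-Pro-Ser)4 peptide, 100 μM radiolabelled ATP, 45 min at 30° C. Product quantified by filter capture and scintillation counting.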

[2] = target: T1, Flt3 (FMS-like tyrosine kinase-3) (Homo sapiens, UniProt P36888); test: Kinase assay (radioactive phosphate incorporation), Flt3; format: biochemical; conditions: pIC50 is -log(IC50, M), read-out: Kinase Inhibition pIC50 Flt3 (converted)
T1 sequence (P36888 27-993): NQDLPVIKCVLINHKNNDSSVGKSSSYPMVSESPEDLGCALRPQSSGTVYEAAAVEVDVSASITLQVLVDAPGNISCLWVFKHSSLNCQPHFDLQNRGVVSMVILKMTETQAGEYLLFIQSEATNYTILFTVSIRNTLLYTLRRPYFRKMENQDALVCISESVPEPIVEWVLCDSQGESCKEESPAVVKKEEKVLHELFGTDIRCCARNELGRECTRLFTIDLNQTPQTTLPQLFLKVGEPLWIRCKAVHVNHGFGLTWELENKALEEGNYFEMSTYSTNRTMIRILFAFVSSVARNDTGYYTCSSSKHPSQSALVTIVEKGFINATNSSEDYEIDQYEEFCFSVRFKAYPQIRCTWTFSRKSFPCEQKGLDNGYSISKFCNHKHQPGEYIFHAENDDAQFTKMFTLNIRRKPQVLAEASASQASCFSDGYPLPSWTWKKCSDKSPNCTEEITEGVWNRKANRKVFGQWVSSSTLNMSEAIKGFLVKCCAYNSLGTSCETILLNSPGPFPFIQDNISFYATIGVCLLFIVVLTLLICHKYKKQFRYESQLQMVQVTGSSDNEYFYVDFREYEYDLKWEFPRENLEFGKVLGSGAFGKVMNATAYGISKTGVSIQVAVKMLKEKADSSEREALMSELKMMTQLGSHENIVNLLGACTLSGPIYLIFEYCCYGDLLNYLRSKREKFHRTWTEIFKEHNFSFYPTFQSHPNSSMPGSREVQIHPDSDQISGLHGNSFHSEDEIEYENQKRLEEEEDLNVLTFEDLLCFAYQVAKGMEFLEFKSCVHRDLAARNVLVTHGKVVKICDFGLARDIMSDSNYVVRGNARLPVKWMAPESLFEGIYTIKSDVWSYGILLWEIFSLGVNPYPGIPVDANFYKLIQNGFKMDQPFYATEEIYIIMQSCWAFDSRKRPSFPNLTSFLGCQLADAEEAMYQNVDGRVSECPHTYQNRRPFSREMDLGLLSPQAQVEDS
How it was run: (§2)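 Each recombinant kinase was combined with its polypeptide substrate in pH 7.4 assay buffer. Mg/ATP mix carrying [γ-32P]-ATP (100 μM ATP) was then added and the plate incubated at 30° C. After stopping on ice, the reaction was filtered, washed with 75 mM orthophosphoric acid, dried and counted.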

[3] = target: T2, Aurora A kinase (Homo sapiens, UniProt O14965); test: Aurora-A (human) kinase assay (Kemptide substrate); format: biochemical; conditions: pIC50 is -log(IC50, M); 15 μM ATP; read-out: Kinase Inhibition pIC50 Aurora A kinase (converted)
T2 construct: purchased
T2 sequence (O14965 1-403): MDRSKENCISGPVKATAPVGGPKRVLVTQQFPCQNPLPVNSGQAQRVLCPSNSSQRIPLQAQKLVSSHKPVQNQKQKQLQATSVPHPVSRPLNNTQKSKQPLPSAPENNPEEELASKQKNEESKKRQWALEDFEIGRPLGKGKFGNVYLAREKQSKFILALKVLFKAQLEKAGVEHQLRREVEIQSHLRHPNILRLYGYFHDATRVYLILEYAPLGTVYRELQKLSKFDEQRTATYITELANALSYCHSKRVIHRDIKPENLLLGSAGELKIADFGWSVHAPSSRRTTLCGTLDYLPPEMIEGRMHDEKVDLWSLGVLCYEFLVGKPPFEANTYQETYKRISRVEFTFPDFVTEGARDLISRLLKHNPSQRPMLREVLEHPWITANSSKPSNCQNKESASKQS
How it was run: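 Kemptide (LRRASLG, 200 μM) phosphorylation by 5-10 ng commercial aurora-A measured as [γ-33P] incorporation at 15 μM ATP with 10 mM Mg acetate, pH 7.0 MOPS buffer. Reaction ran 40 min at room temperature; acid-stopped, captured on P81 filters, scintillation read.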

[4] = target: CDK4-cyclin D1 (Homo sapiens, UniProt P11802); test: Kinase assay (radioactive phosphate incorporation), CDK4-cyclin D1; format: biochemical; conditions: read-out: Kinase Inhibition pIC50 CDK4-cyclin D1 (converted)
Chain of CDK4-cyclin D1 (P11802 whole entry): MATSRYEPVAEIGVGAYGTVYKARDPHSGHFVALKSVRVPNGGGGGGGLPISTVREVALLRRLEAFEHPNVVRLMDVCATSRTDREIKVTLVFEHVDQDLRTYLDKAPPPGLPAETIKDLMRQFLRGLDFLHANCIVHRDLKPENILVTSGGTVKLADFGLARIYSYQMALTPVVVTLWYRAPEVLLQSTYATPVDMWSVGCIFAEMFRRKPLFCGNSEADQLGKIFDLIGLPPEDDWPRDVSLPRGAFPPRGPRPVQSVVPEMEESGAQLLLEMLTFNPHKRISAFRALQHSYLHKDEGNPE
Chain of CDK4-cyclin D1 (P24385 whole entry partner): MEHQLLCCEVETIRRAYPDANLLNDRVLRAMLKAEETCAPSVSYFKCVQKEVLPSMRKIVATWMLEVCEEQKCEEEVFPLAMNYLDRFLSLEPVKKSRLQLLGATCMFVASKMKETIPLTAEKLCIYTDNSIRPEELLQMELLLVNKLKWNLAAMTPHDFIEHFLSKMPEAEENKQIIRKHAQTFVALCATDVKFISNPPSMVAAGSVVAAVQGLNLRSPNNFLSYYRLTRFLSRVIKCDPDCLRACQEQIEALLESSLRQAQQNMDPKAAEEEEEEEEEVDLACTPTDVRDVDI
Procedure: (§3) Kinase assays. The compounds of the invention above were investigated for their ability to inhibit the enzymatic activity of various protein kinases (Table 2). This was achieved by measurement of incorporation of radioactive phosphate from ATP into appropriate polypeptide substrates. Recombinant protein kinases and kinase complexes were produced or obtained commercially. Assays were performed using 96-well plates and appropriate assay buffers (typically 25 mM β-glycerophosphate, 20 mM MOPS, 5 mM EGTA, 1 mM DTT, 1 mM […], pH 7.4), into which were added 2-4 μg of active enzyme with appropriate substrates. The reactions were initiated by addition of Mg/ATP mix (15 mM MgCl2+100 μM ATP with 30-50 kBq per well of [γ-^32P]-ATP) and mixtures incubated as required at 30° C. Reactions were stopped on ice, followed by filtration through p81 filterplates or GF/C filterplates (Whatman Polyfiltronics, Kent, UK). After washing 3 times with 75 mM aq orthophosphoric acid, plates were dried, scintillant added and incorporated radioactivity measured in a scintillation counter (TopCount, Packard Instruments, Pangbourne, Berks, UK). Compounds for kinase assay were made up as 10 mM stocks in DMSO and diluted into 10% DMSO in assay buffer.

[5] = target: GSK3b (Homo sapiens, UniProt P49841); test: Kinase assay (radioactive phosphate incorporation), GSK-3b; format: biochemical; conditions: read-out: Kinase Inhibition pIC50 GSK-3b (converted)
Chain of GSK3b (P49841 whole entry, species assumed): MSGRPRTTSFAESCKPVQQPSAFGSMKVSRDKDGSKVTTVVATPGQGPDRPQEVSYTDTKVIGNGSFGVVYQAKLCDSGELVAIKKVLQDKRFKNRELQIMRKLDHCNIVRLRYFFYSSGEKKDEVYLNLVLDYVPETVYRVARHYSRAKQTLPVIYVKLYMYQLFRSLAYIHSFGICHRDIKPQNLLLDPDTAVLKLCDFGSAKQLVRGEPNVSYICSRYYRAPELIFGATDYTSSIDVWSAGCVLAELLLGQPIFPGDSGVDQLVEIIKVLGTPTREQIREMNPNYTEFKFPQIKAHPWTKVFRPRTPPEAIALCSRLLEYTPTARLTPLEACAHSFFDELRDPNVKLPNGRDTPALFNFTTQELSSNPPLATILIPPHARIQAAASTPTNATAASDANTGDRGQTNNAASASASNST
Procedure: as §3

[6] = target: CDK9/cyclin T1 (Homo sapiens, UniProt P50750); test: CDK 9 assay (CTD peptide substrate); format: biochemical; conditions: read-out: Kinase Inhibition pIC50 CDK9-cyclin T1 (converted)
Chain of CDK9/cyclin T1 (P50750 whole entry): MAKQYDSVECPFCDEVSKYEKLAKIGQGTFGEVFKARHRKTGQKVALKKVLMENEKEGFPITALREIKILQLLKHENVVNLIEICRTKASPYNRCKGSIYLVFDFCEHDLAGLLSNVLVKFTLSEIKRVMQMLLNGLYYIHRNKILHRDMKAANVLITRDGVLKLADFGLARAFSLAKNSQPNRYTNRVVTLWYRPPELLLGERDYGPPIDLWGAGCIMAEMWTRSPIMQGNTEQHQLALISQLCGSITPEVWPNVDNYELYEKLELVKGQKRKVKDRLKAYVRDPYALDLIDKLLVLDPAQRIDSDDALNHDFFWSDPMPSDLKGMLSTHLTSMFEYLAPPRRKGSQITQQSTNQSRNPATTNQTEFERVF
Chain of CDK9/cyclin T1 (O60563 whole entry partner): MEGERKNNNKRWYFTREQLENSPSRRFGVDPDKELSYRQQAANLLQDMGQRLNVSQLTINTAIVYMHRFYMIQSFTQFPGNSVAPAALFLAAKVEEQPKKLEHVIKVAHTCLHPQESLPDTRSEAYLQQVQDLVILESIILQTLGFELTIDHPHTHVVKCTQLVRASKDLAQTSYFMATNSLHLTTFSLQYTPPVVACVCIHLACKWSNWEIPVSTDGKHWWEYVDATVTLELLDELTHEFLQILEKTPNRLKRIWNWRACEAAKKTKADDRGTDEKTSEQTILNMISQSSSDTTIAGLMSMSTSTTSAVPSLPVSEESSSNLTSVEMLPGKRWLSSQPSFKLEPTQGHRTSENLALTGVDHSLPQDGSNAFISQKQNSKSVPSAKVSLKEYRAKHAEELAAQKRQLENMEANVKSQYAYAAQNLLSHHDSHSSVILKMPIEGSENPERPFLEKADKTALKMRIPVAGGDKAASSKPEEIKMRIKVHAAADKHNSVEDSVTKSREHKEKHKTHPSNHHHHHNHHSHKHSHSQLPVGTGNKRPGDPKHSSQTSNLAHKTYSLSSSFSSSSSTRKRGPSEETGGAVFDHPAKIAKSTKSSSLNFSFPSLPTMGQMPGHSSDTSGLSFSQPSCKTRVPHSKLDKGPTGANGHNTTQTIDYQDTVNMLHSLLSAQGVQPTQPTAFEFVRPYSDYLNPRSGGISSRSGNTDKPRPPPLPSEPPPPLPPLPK
How it was run: as §1

[7] = target: CDK2-cycline E (Homo sapiens, UniProt P24941); test: Kinase assay (radioactive phosphate incorporation), CDK2-cyclin E; format: biochemical; conditions: read-out: Kinase Inhibition pIC50 CDK2-cycline E (converted)
How it was run: as §2

Chain of CDK7/cyclin H (P50613 whole entry): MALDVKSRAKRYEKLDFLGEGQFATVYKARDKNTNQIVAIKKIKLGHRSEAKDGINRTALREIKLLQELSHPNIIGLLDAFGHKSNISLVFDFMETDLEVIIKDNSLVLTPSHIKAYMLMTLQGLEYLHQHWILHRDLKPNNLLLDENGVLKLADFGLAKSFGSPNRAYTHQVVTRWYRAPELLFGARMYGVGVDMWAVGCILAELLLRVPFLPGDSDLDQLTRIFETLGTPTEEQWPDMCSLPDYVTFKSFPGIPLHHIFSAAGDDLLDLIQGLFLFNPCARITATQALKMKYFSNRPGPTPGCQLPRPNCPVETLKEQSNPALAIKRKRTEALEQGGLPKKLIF
Chain of CDK7/cyclin H (P51946 whole entry partner): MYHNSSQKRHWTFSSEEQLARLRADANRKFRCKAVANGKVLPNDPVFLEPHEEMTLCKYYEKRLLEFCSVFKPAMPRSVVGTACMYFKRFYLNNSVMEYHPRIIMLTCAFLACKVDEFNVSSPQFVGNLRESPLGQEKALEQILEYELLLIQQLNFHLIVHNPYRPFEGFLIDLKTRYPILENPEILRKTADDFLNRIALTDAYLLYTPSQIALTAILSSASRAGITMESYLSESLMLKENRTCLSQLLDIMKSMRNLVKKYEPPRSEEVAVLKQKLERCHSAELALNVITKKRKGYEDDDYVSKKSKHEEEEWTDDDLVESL

Row | Compound | IC50 [1] [nM] | IC50 [2] [nM] | IC50 [3] [nM] | IC50 [4] [nM] | IC50 [5] [nM] | IC50 [6] [nM] | IC50 [7] [nM] | melting point [°C]
1 | CNc1nc(C)c(-c2ccnc(Nc3cccc(N4CCN(C(C)=O)CC4)c3)n2)s1 [Compound 3, 1-(4-{3-[4-(4-Methyl-2-methylamino-thiazol-5-yl)-pyrimidin-2-ylamino]-phenyl}-piperazin-1-yl)-ethanone] | 2000 | 20 | 20 | 3160 | 5010 | – | – | –
2 | CNc1nc(C)c(-c2ccnc(Nc3ccc(S(N)(=O)=O)cc3)n2)s1 [Compound 34, 4-[4-(4-Methyl-2-methylamino-thiazol-5-yl)-pyrimidin-2-ylamino]-benzenesulfonamide] | 1000 | 316 | 31.6 | – | 1260 | – | – | –
3 | CNc1nc(C)c(-c2ccnc(Nc3ccc(C)c(Br)c3)n2)s1 [Compound 42, (3-Bromo-4-methyl-phenyl)-[4-(4-methyl-2-methylamino-thiazol-5-yl)-pyrimidin-2-yl]-amine] | 6310 | 79.4 | 25.1 | – | 1000 | 39.8 | 316 | –
4 | CNc1nc(C)c(-c2ccnc(Nc3cccc(S(=O)(=O)NCCOC)c3)n2)s1 [Compound 54, N-(2-Methoxy-ethyl)-3-[4-(4-methyl-2-methylamino-thiazol-5-yl)-pyrimidin-2-ylamino]-benzenesulfonamide] | 794 | 251 | 25.1 | 251 | 631 | 39.8 | 100 | 205 to 206
5 | CCNc1nc(C)c(-c2ccnc(Nc3cccc(S(=O)(=O)NC(C)C)c3)n2)s1 [Compound 70, 3-[4-(2-Ethylamino-4-methyl-thiazol-5-yl)-pyrimidin-2-ylamino]-N-isopropyl-benzenesulfonamide] | – | – | 1000 | 158 | 5010 | 100 | – | –
6 | Cc1nc(N)sc1-c1ccnc(Nc2cccc(S(=O)(=O)N3CCOCC3)c2)n1 [Compound 81, [4-(2-Amino-4-methyl-thiazol-5-yl)-pyrimidin-2-yl]-[3-(morpholine-4-sulfonyl)-phenyl]-amine] | 6310 | – | 3160 | – | 25.1 | – | 3160 | 215 to 216
7 | Cc1nc(C)c(-c2ccnc(Nc3ccc(C)c(S(=O)(=O)N4CCOCC4)c3)n2)s1 [Compound 82, [4-(2,4-Dimethyl-thiazol-5-yl)-pyrimidin-2-yl]-[4-methyl-3-(morpholine-4-sulfonyl)-phenyl]-amine] | 3980 | – | 3160 | – | 3160 | 398 | 3980 | 81 to 83
8 | COCCNc1nc(C)c(-c2ccnc(Nc3cccc(S(N)(=O)=O)c3)n2)s1 [Compound 83, 3-{4-[2-(2-Methoxy-ethylamino)-4-methyl-thiazol-5-yl]-pyrimidin-2-ylamino}-benzenesulfonamide] | 50.1 | 39.8 | – | – | 794 | 15.8 | 25.1 | –
9 | CCNc1nc(C)c(-c2ccnc(Nc3cccc(S(=O)(=O)NC(C)(C)CO)c3)n2)s1 [Compound 84, 3-[4-(2-Ethylamino-4-methyl-thiazol-5-yl)-pyrimidin-2-ylamino]-N-(2-hydroxy-1,1-dimethyl-ethyl)-benzenesulfonamide] | 1580 | – | 25.1 | – | 2510 | 158 | 631 | –
10 | Cc1nc(C)c(-c2ccnc(Nc3cccc(CNC(=O)c4ccccn4)c3)n2)s1 [Compound 91, Pyridine-2-carboxylic acid 3-[4-(2,4-dimethyl-thiazol-5-yl)-pyrimidin-2-ylamino]-benzylamide] | – | 251 | 794 | – | 3980 | – | 398 | –
